Patent US9353090B2, “Heterocyclic carboxylic acids as activators of soluble guanylate cyclase” (Boehringer Ingelheim International GmbH, priority 2014, dated 2016)
≈ marks a conversion by molar mass, not a printed value.

What was measured:
[1] = Human liver microsome (HLM) metabolic stability assay; type: in vitro ADME; conditions: human liver microsomes
How it was run: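 Compound at 1 uM incubated with human liver microsomes at 37° C. for 60 min after NADPH addition. Aliquots quenched in cold acetonitrile at 0, 5, 15, 30 and 60 min and analysed by LC/MS/MS. t1/2 from ln(% remaining) vs time slope; CLint, CLh and % Qh derived from it (n=1).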

physchem = conditions: kinetic from dmso stock
[2] = molecular target: human soluble guanylate cyclase alpha 1 and beta 1 subunits (sGC) (Homo sapiens (Human), UniProt Q02108+Q02153); assay: sGC cellular activator assay (cGMP, HTRF), in the presence and absence of 50% human serum; type: cell-based; conditions: CHO cells stably expressing human sGC alpha 1/beta 1, preincubated with 40 microM ODQ; cGMP by HTRF; Table 2 does not state whether with or without 50% human serum
How it was run: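 Heme-oxidized conditions: ODQ (40 microM, 1 h) pretreatment of CHO cells stably expressing human α1/β1 sGC, in buffer containing 0.1% BSA and IBMX.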

[3] = pH 2.2, aqueous buffer, Solubility (pH 2.2)
[4] = pH 4.5, aqueous buffer, Solubility (pH 4.5)
[5] = pH 6.8, aqueous buffer, Solubility (pH 6.8)

human soluble guanylate cyclase alpha 1 and beta 1 subunits (sGC), sequence (Q02108 whole entry partner): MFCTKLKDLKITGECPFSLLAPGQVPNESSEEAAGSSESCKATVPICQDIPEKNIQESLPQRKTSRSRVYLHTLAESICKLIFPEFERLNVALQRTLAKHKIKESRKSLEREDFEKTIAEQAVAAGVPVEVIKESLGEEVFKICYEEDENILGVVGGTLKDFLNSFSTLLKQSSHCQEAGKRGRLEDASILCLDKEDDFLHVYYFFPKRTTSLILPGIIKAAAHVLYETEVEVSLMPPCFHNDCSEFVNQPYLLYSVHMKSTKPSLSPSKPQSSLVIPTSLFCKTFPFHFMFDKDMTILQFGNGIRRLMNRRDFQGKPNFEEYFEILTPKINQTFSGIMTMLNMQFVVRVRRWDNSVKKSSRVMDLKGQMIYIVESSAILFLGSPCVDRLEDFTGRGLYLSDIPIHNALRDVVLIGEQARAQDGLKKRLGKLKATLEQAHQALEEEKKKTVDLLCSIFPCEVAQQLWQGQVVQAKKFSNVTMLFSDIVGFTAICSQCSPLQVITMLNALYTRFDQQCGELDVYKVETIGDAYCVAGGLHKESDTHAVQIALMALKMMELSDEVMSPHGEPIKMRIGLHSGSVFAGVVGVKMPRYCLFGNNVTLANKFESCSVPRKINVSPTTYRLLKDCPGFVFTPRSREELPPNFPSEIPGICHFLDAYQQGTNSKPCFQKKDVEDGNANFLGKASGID
human soluble guanylate cyclase alpha 1 and beta 1 subunits (sGC), sequence (Q02153 whole entry): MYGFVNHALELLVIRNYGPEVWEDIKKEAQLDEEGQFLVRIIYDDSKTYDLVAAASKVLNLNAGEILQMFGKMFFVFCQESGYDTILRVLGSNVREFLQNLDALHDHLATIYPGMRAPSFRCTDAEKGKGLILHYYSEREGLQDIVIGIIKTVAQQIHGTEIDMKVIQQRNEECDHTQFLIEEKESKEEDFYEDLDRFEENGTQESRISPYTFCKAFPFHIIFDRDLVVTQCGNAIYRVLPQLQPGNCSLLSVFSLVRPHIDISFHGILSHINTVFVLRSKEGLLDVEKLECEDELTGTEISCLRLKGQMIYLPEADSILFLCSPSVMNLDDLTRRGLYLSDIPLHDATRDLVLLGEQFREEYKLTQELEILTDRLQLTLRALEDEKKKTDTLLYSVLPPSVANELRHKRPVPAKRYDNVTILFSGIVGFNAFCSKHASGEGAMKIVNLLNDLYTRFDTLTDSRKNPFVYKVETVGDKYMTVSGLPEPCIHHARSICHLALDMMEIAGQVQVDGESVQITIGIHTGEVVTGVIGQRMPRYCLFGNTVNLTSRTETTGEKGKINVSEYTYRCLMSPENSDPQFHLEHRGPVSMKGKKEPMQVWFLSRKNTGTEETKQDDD

Row | SMILES | Metabolic stability (Qh %), % hepatic blood flow [1] [%] | solubility at 24 h (physchem; [3]) [µg/mL] | solubility at 24 h (physchem; [4]) [µg/mL] | solubility at 24 h (physchem; [5]) [µg/mL] | EC50 [2] [nM]
1 | COCc1cc(COc2c(C)cccc2-c2cccc(N3C[C@@H]4C[C@]4(C(=O)O)[C@H]3COC)n2)cc2c1CN(C1CCOCC1)CC2 [Compound 279] | <24 | 128 (≈ 203 µM) | 100 (≈ 160 µM) | 82.8 (≈ 132 µM) | 65
2 | COCc1cc(COc2c(C)cccc2-c2cccc(N3C[C@@H]4C[C@]4(C(=O)O)[C@H]3COC)n2)cc2c1CN(C1CCOC1)CC2 (some centres unmarked) [Compound 280] | 30 | 120 (≈ 196 µM) | 91 (≈ 148 µM) | 79.3 (≈ 129 µM) | 140
3 | COCc1cc(COc2c(C)cccc2-c2cccc(N3C[C@@H]4C[C@]4(C(=O)O)[C@H]3COC)n2)cc2c1CN(C1COC1)CC2 [Compound 281] | 25 | 120 (≈ 200 µM) | 87.4 (≈ 146 µM) | 83.1 (≈ 139 µM) | 267
4 | CO[C@H]1CN(c2cccc(-c3cccc(C)c3OCc3ccc4c(c3C)CCN(C3COC3)CC4)n2)CC[C@H]1C(=O)O [Compound 282] | 58 | 137 (≈ 240 µM) | 99.6 (≈ 174 µM) | 80.5 (≈ 141 µM) | 14
5 | CO[C@@H]1CN(c2cccc(-c3cccc(C)c3OCc3ccc4c(c3C)CCN(C3CCOC3)CC4)n2)CC[C@@H]1C(=O)O (some centres unmarked) [Compound 283] | <24 | 124 (≈ 212 µM) | 89.4 (≈ 153 µM) | 68.4 (≈ 117 µM) | 4
6 | COCc1cc(COc2c(C)cccc2-c2cccc(N3CC[C@H](C(=O)O)[C@H](OC)C3)n2)cc2c1CN(C1CCOC1)CC2 (some centres unmarked) [Compound 284] | <24 | 129 (≈ 215 µM) | 103 (≈ 171 µM) | 83.5 (≈ 139 µM) | 231
7 | COCc1cc(COc2c(C)cccc2-c2cccc(N3CC[C@H](C(=O)O)[C@H](OC)C3)n2)cc2c1CN(C1COC1)CC2 [Compound 285] | <24 | 146 (≈ 248 µM) | 111 (≈ 188 µM) | 97.6 (≈ 166 µM) | 359
8 | COCc1cc(COc2c(C)cccc2-c2cccc(N3CC[C@H](C(=O)O)[C@H](OC)C3)n2)cc2c1CN(C1CCOCC1)CC2 [Compound 286] | <24 | 149 (≈ 242 µM) | 119 (≈ 193 µM) | 88.5 (≈ 144 µM) | 160
9 | CO[C@H]1CN(c2nc(-c3cccc(C)c3OCc3ccc4c(c3C)CCN(C3COC3)CC4)cs2)CC[C@H]1C(=O)O [Compound 287] | <24 | 120 (≈ 207 µM) | 72.7 (≈ 126 µM) | 71.7 (≈ 124 µM) | 13
10 | CO[C@H]1CN(c2nc(-c3cccc(C)c3OCc3ccc4c(c3C)CCN(C3CCOCC3)CC4)cs2)CC[C@H]1C(=O)O [Compound 288] | <24 | 117 (≈ 193 µM) | 75.5 (≈ 125 µM) | 71.8 (≈ 119 µM) | 18
11 | CO[C@H]1CN(c2cccc(-c3cccc(C)c3OCc3ccc4c(c3C)CCN(C3COC3)CC4)n2)CC[C@@H]1C(=O)O [Compound 289] | <24 | 123 (≈ 215 µM) | 82.4 (≈ 144 µM) | 69.9 (≈ 122 µM) | 235
12 | CO[C@@H]1CN(c2cccc(-c3cccc(C)c3OCc3ccc4c(c3C)CCN(C3COC3)CC4)n2)CC[C@H]1C(=O)O [Compound 290] | <24 | 119 (≈ 208 µM) | 80 (≈ 140 µM) | 66.5 (≈ 116 µM) | 228
13 | CO[C@@H]1CN(c2cccc(-c3cccc(C)c3OCc3cc(C)c4c(c3)CCN(C3COC3)CC4)n2)CC[C@@H]1C(=O)O [Compound 291] | <24 | 128 (≈ 224 µM) | 84.7 (≈ 148 µM) | 62.3 (≈ 109 µM) | 2
14 | Cc1c(COc2ccccc2-c2cccc(N3CC[C@@]4(C(=O)O)C[C@H]4C3)n2)ccc2c1CCN(C1CCC1)C2 [Compound 292] | 47 | 113 (≈ 216 µM) | 43.5 (≈ 83.1 µM) | 6.2 (≈ 11.8 µM) | 3

Continued, values first:

Row | Metabolic stability (Qh %), % hepatic blood flow [1] [%] | solubility at 24 h (physchem; [3]) [µg/mL] | solubility at 24 h (physchem; [4]) [µg/mL] | solubility at 24 h (physchem; [5]) [µg/mL] | EC50 [2] [nM] | SMILES
15 | 25 | 116 (≈ 193 µM) | 82.3 (≈ 137 µM) | 63.1 (≈ 105 µM) | 1 | CO[C@@H]1CN(c2cccc(-c3cccc(C)c3OCc3cc(C)c4c(c3)CCN(C3CCOCC3)CC4)n2)CC[C@@H]1C(=O)O [Compound 293]
16 | <24 | 132 (≈ 219 µM) | 77.2 (≈ 129 µM) | 68.8 (≈ 115 µM) | 363 | CO[C@H]1CN(c2cccc(-c3cccc(C)c3OCc3ccc4c(c3C)CCN(C3CCOCC3)CC4)n2)CC[C@@H]1C(=O)O [Compound 296]
17 | <24 | 134 (≈ 224 µM) | 93.7 (≈ 156 µM) | 77.3 (≈ 129 µM) | 150 | CO[C@@H]1CN(c2cccc(-c3cccc(C)c3OCc3ccc4c(c3C)CCN(C3CCOCC3)CC4)n2)CC[C@H]1C(=O)O [Compound 297]
18 | 34 | 131 (≈ 224 µM) | 98.1 (≈ 167 µM) | 80.1 (≈ 137 µM) | 578 | CO[C@H]1CN(c2cccc(-c3cccc(C)c3OCc3cc(C)c4c(c3)CCN(C3CCOCC3)C4)n2)CC[C@@H]1C(=O)O [Compound 298]
19 | 31 | 134 (≈ 229 µM) | 90.8 (≈ 155 µM) | 70.8 (≈ 121 µM) | 152 | CO[C@@H]1CN(c2cccc(-c3cccc(C)c3OCc3cc(C)c4c(c3)CCN(C3CCOCC3)C4)n2)CC[C@H]1C(=O)O [Compound 299]
20 | <24 | 116 (≈ 220 µM) | 82.3 (≈ 155 µM) | 62.3 (≈ 118 µM) | 154 | CO[C@@H]1CN(c2cccc(-c3cccc(C)c3OCc3ccc4c(c3C)CCN(C)CC4)n2)CC[C@@H]1C(=O)O [Compound 300]
21 | <24 | 141 (≈ 241 µM) | 105 (≈ 180 µM) | 91.1 (≈ 156 µM) | 1 | CO[C@@H]1CN(c2cccc(-c3cccc(C)c3OCc3ccc4c(c3C)CCN([C@H]3CCOC3)CC4)n2)CC[C@@H]1C(=O)O [Compound 301]
22 | <24 | 148 (≈ 252 µM) | 112 (≈ 190 µM) | 85.5 (≈ 146 µM) | 3 | CO[C@@H]1CN(c2cccc(-c3cccc(C)c3OCc3ccc4c(c3C)CCN([C@@H]3CCOC3)CC4)n2)CC[C@@H]1C(=O)O [Compound 302]
23 | 79 | 141 (≈ 232 µM) | 16.4 (≈ 27 µM) | 1 (≈ 1.65 µM) | 2 | Cc1cc(COc2c(C)cccc2-c2csc(N3CC[C@@]4(C(=O)O)C[C@H]4C3)n2)cc2c1CN(C1CCC(F)(F)CC1)CC2 [Compound 303]
24 | 30 | 108 (≈ 231 µM) | 81.2 (≈ 173 µM) | 0.7 (≈ 1.49 µM) | 340 | Cc1c(COc2ccccc2-c2cccc(N3CC[C@@]4(C(=O)O)C[C@H]4C3)n2)ccc2c1CCNC2 [Compound 305]
25 | 61 | 141 (≈ 246 µM) | 97.1 (≈ 169 µM) | 5.2 (≈ 9.05 µM) | 3 | Cc1c(COc2ccccc2-c2cccc(N3CC[C@@]4(C(=O)O)C[C@H]4C3)n2)ccc2c1CCN(C(C)c1ccccn1)C2 (some centres unmarked) [Compound 306]
26 | <24 | 127 (≈ 223 µM) | 101 (≈ 176 µM) | 81.2 (≈ 142 µM) | 19 | CO[C@@H]1CN(c2cccc(-c3cccc(C)c3OCc3ccc4c(c3C)CN(C3CCOCC3)C4)n2)CC[C@@H]1C(=O)O [Compound 307]
27 | 43 | 135 (≈ 239 µM) | 97.5 (≈ 173 µM) | 0.1 (≈ 0.177 µM) | 10 | Cc1c(COc2ccccc2-c2cccc(N3CC[C@@]4(C(=O)O)C[C@H]4C3)n2)ccc2c1CCN(Cc1cncn1C)C2 [Compound 308]
28 | 54 | 163 (≈ 276 µM) | 116 (≈ 197 µM) | 23.8 (≈ 40.4 µM) | 18 | Cc1nccnc1C(C)N1CCc2c(ccc(COc3ccccc3-c3cccc(N4CC[C@@]5(C(=O)O)C[C@H]5C4)n3)c2C)C1 (some centres unmarked) [Compound 309]
29 | 63 | 99.5 (≈ 176 µM) | 61.6 (≈ 109 µM) | 0.5 (≈ 0.885 µM) | 3 | Cc1cc(CN2CCc3c(ccc(COc4ccccc4-c4cccc(N5CC[C@@]6(C(=O)O)C[C@H]6C5)n4)c3C)C2)no1 [Compound 311]
30 | <24 | 155 (≈ 256 µM) | 143 (≈ 236 µM) | 146 (≈ 242 µM) | 3 | CO[C@H]1CN(c2nc(-c3cccc(C)c3OCc3ccc4c(c3)[C@@H](C)CN(C3CCOCC3)CC4)cs2)CC[C@H]1C(=O)O [Compound 312]
31 | <24 | 141 (≈ 233 µM) | 136 (≈ 225 µM) | 133 (≈ 219 µM) | 7 | CO[C@H]1CN(c2nc(-c3cccc(C)c3OCc3ccc4c(c3)[C@H](C)CN(C3CCOCC3)CC4)cs2)CC[C@H]1C(=O)O [Compound 313]
